According to ChEMBL document CHEMBL4673384, “Studying Histone Deacetylase Inhibition and Apoptosis Induction of Psammaplin A Monomers with Modified Thiol Group” (ACS Med Chem Lett, 2021):

What was measured:
Type in all cases: functional
HL-60 [1] = test: Induction of apoptosis in human HL-60 cells assessed as necrotic cells at 0.5 uM incubated for 24 hrs by propidium iodide and annexin-V FITC staining based FACS analysis (reference value: 0.3 %)
HL-60 [2] = test: Induction of apoptosis in human HL-60 cells assessed as early apoptotic cells at 0.5 uM incubated for 24 hrs by propidium iodide and annexin-V FITC staining based FACS analysis (reference value: 2.8 %)
HL-60 [3] = test: Induction of apoptosis in human HL-60 cells assessed as necrotic cells at 1 uM incubated for 24 hrs by propidium iodide and annexin-V FITC staining based FACS analysis (reference value: 0.5 %)

Compound	Activity (HL-60 [1]) [%]	Activity (HL-60 [2]) [%]	Activity (HL-60 [3]) [%]
O=C(CCNC(=O)/C(Cc1ccc(O)c(Br)c1)=N/O)NO	0.2	1.9	
O=C(NCCSSCCNC(=O)/C(Cc1ccc(O)c(Br)c1)=N/O)/C(Cc1ccc(O)c(Br)c1)=N/O [PSAMMAPLIN A]			0.8
